Test results reported in ChEMBL document CHEMBL6078684, “Discovery of a Novel Non-invasive AR PROTAC Degrader for the Topical Treatment of Androgenetic Alopecia” (J Med Chem, 2024).
The source made the active and inactive calls. The rule behind the calls is not given here.

What was measured:
[1] = target: T1, Protein cereblon/Androgen receptor (Homo sapiens, UniProt P10275+Q96SW2); assay: PROTAC activity at CRBN/AR in human dermal papilla cell assessed as induction of AR degradation by measuring maximal efficacy after 24 hrs by Western blot analysis relative to control; format: cell-based
T1 sequence (P10275 whole entry, looked up): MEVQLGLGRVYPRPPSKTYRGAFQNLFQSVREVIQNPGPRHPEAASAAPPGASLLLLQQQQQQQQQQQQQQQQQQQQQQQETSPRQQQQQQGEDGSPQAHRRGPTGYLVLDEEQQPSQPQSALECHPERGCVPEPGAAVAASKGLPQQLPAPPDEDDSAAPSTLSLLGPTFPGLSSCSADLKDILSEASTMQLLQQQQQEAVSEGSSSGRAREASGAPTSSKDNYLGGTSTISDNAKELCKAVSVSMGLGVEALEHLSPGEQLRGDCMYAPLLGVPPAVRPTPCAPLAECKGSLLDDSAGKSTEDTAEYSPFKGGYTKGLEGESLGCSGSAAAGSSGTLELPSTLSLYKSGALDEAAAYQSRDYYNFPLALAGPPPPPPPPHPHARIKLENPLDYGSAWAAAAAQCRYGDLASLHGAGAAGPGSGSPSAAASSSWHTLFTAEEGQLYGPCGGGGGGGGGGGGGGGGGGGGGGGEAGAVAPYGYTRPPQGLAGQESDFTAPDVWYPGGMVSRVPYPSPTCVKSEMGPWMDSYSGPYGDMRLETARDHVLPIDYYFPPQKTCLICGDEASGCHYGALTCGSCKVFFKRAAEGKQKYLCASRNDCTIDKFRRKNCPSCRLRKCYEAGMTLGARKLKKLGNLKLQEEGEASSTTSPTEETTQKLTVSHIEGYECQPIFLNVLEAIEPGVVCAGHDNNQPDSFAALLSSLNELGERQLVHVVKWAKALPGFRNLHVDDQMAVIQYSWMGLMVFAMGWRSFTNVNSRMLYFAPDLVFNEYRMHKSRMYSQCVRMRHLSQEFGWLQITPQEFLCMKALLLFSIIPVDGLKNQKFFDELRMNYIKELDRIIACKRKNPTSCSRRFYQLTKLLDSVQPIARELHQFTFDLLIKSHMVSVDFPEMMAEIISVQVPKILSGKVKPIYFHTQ
T1 sequence (Q96SW2 whole entry, looked up): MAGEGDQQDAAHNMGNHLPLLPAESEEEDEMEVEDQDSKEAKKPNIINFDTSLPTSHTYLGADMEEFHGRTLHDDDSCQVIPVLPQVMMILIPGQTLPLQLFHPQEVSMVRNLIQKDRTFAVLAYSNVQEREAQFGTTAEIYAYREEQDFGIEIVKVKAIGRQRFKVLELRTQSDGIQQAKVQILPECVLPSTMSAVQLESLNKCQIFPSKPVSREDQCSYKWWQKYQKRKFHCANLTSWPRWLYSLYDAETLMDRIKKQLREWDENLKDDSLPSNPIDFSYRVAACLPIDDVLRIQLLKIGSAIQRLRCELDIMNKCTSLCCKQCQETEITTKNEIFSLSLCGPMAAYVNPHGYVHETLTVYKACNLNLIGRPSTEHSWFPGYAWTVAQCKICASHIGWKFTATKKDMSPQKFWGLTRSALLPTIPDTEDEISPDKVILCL

[2] = target: T1, Protein cereblon/Androgen receptor; assay: PROTAC activity at CRBN/AR in human dermal papilla cell assessed as induction of AR degradation at 500 nM by Western blot analysis; format: cell-based; settings: time 2-24 hrs
[3] = target: T1, Protein cereblon/Androgen receptor; assay: PROTAC activity at CRBN/AR in human dermal papilla cell assessed as induction of AR degradation at 500 nM measured after 24 hrs by Western blot analysis; format: cell-based
[4] = target: T1, Protein cereblon/Androgen receptor; assay: PROTAC activity at CRBN/AR in human dermal papilla cells assessed as induction of AR degradation at 500 nM in presence of MLN4924 by Western blot analysis; format: cell-based; settings: Human dermal papilla cell
[5] = target: T1, Protein cereblon/Androgen receptor; assay: PROTAC activity at CRBN/AR in human dermal papilla cells assessed as decrease in TGF-beta1 expression level at 250 to 1000 nM preincubated with testosterone for 24 hrs followed by compound addition and measured after 48 hrs by Western blot analysis; format: cell-based; settings: Human dermal papilla cell, dose 250-1000 nM
[6] = target: T1, Protein cereblon/Androgen receptor; assay: PROTAC activity at CRBN/AR in human dermal papilla cells assessed as inhibition of TGF-beta1 release by measuring fold change in TGF-beta1 concentration at 1 uM preincubated with testosterone for 24 hrs followed by compound addition and measured after 48 hrs by ELISA relative to minoxidil; format: cell-based; settings: Human dermal papilla cell
[7] = Ratio of drug concentration in male ICR mouse skin to heart at 4 mg/ml, TOP measured after 0.25 hrs by LC-MS/MS analysis; format: ADME, tissue-based; settings: in vivo, topical_or_ocular
[8] = Ratio of drug concentration in male ICR mouse skin to heart at 4 mg/ml, TOP measured after 0.5 hrs by LC-MS/MS analysis; format: ADME, tissue-based; settings: in vivo, topical_or_ocular
[9] = Cmax in male ICR mouse skin at 4 mg/ml, TOP measured after 12 hrs by LC-MS/MS analysis; format: ADME, tissue-based, Skin of body; settings: topical or ocular
[10] = Cmax in male ICR mouse plasma at 4 mg/ml, TOP measured after 12 hrs by LC-MS/MS analysis; format: ADME, cell-free; settings: topical or ocular
[11] = Ratio of drug concentration in male ICR mouse skin to plasma at 4 mg/ml, TOP measured after 2 hrs by LC-MS/MS analysis; format: ADME, cell-free; settings: other tissue, topical_or_ocular
[12] = Ratio of drug concentration in male ICR mouse skin to plasma at 4 mg/ml, TOP measured after 8 hrs by LC-MS/MS analysis; format: ADME, cell-free; settings: other tissue, topical_or_ocular
[13] = Ratio of drug concentration in male ICR mouse skin to liver at 4 mg/ml, TOP measured after 0.25 hrs by LC-MS/MS analysis; format: ADME, tissue-based; settings: in vivo, topical_or_ocular
[14] = Ratio of drug concentration in male ICR mouse skin to liver at 4 mg/ml, TOP measured after 0.5 hrs by LC-MS/MS analysis; format: ADME, tissue-based; settings: in vivo, topical_or_ocular
[15] = Ratio of drug concentration in male ICR mouse skin to liver at 4 mg/ml, TOP measured after 2 hrs by LC-MS/MS analysis; format: ADME, tissue-based; settings: in vivo, topical_or_ocular
[16] = Ratio of drug concentration in male ICR mouse skin to liver at 4 mg/ml, TOP measured after 8 hrs by LC-MS/MS analysis; format: ADME, tissue-based; settings: in vivo, topical_or_ocular
[17] = Ratio of drug concentration in male ICR mouse skin to spleen at 4 mg/ml, TOP measured after 0.25 hrs by LC-MS/MS analysis; format: ADME, tissue-based; settings: in vivo, topical_or_ocular
[18] = Ratio of drug concentration in male ICR mouse skin to lungs at 4 mg/ml, TOP measured after 0.25 hrs by LC-MS/MS analysis; format: ADME, tissue-based, Skin/Lung; settings: in vivo, topical_or_ocular
[19] = Ratio of drug concentration in male ICR mouse skin to lungs at 4 mg/ml, TOP measured after 8 hrs by LC-MS/MS analysis; format: ADME, tissue-based, Skin/Lung; settings: in vivo, topical_or_ocular
[20] = Ratio of drug concentration in male ICR mouse skin to kidney at 4 mg/ml, TOP measured after 1 hrs by LC-MS/MS analysis; format: ADME, tissue-based; settings: in vivo, topical_or_ocular
[21] = Ratio of drug concentration in male ICR mouse skin to kidney at 4 mg/ml, TOP measured after 4 hrs by LC-MS/MS analysis; format: ADME, tissue-based; settings: in vivo, topical_or_ocular
[22] = Ratio of drug concentration in male ICR mouse skin to kidney at 4 mg/ml, TOP measured after 8 hrs by LC-MS/MS analysis; format: ADME, tissue-based; settings: in vivo, topical_or_ocular
[23] = Ratio of drug concentration in male ICR mouse skin to kidney at 4 mg/ml, TOP measured after 12 hrs by LC-MS/MS analysis; format: ADME, tissue-based; settings: in vivo, topical_or_ocular
Mus musculus [24] = assay: Hair regeneration efficacy in testosterone induced male C57BL/6 mouse androgenetic alopecia model at 0.4 %, TOP administered once daily for 14 days and measured after 21 days with co-administration of 0.2% testosterone for 28 days relative to minoxidil by photographic analysis; format: functional; settings: time 14 day
[25] = target: T2, Protein cereblon/Androgen receptor (Mus musculus) (UniProt P19091+Q8C7D2); assay: (§1) In vivo PROTAC activity at CRBN/AR in testosterone induced male C57BL/6 mouse androgenetic alopecia model assessed as decrease in AR protein level in skin at 0.1 to 0.4 % TOP administered once daily for 14 days with co-administration of 0.2% testosterone for 28 days by Western blot analysis; format: functional, organism-based; settings: dose 0.1-0.4 %, time 14.0 day
T2 sequence (P19091 whole entry, looked up): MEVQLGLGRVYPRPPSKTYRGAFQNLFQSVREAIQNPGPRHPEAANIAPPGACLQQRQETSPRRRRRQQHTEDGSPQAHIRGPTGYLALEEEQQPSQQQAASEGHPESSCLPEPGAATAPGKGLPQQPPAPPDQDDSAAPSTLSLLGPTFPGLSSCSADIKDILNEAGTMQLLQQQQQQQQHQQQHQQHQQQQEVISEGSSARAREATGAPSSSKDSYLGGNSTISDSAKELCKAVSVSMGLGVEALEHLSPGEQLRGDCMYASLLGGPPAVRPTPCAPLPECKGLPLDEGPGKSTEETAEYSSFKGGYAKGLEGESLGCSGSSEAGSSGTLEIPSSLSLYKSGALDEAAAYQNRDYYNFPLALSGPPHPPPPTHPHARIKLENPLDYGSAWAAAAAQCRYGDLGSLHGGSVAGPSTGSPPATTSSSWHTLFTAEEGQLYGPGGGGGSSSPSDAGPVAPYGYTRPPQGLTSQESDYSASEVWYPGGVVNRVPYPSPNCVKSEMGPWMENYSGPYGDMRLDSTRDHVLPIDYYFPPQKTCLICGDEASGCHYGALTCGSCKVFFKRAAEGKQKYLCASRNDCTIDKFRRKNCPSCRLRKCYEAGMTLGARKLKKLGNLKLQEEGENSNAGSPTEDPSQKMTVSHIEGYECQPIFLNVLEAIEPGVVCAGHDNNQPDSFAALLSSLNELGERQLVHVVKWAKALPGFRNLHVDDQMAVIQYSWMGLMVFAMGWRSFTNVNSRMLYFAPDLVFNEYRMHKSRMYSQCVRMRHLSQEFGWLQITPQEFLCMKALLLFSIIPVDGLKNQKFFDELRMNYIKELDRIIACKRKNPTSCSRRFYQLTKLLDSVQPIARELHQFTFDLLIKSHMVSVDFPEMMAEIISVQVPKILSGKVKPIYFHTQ
T2 sequence (Q8C7D2 whole entry, looked up): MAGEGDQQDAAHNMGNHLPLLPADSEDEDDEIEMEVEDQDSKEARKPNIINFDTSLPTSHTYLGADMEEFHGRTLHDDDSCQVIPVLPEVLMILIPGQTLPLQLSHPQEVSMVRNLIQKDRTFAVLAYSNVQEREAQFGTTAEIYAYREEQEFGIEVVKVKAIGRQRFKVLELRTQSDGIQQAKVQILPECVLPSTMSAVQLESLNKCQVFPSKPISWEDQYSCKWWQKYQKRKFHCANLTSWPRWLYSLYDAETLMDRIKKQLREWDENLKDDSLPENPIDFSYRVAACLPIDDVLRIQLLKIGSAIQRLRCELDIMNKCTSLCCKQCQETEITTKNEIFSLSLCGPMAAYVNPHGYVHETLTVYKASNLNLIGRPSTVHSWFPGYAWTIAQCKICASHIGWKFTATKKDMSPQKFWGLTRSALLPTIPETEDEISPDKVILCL

Mus musculus [26] = assay: Hair regeneration efficacy in testosterone induced male C57BL/6 mouse androgenetic alopecia model assessed as generation of thick hair with intact scales at 0.4 %, TOP administered once daily for 14 days with co-administration of 0.2% testosterone and measured after 28 days by SEM analysis; format: functional, organism-based; settings: time 28.0 day
Mus musculus [27] = assay: Hair regeneration efficacy in testosterone induced male C57BL/6 mouse androgenetic alopecia model assessed as well formed stratum corneum in hair at 0.4 %, TOP administered once daily for 14 days with co-administration of 0.2% testosterone and measured after 28 days by SEM analysis; format: functional, organism-based; settings: time 28.0 day
Mus musculus [28] = assay: Hair regeneration efficacy in testosterone induced male C57BL/6 mouse androgenetic alopecia model assessed as increase in hair cycle score at 0.4 %, TOP administered once daily for 14 days with co-administration of 0.2% testosterone for 28 days; format: functional, organism-based; settings: time 14.0 day
Mus musculus [29] = assay: Hair regeneration efficacy in testosterone induced male C57BL/6 mouse androgenetic alopecia model assessed as entry of hair follicles to anagen phase by measuring high density of enlarged hair bulbs in subcutaneous tissue at 0.1 %, TOP administered once daily for 14 days with co-administration of 0.2% testosterone for 28 days by H and E staining based analysis; format: functional, organism-based; settings: time 14.0 day
Mus musculus [30] = assay: Hair regeneration efficacy in testosterone induced male C57BL/6 mouse androgenetic alopecia model assessed as increase in hair cycle score at 0.1 %, TOP administered once daily for 14 days with co-administration of 0.2% testosterone for 28 days; format: functional, organism-based; settings: time 14.0 day
[31] = target: T2, Protein cereblon/Androgen receptor (Mus musculus); assay: as §1, with “increase” for “decrease”, “beta-catenin expression” for “AR protein”, “at” for “at 0.1 to”, “DAPI staining based immunofluorescence” for “Western blot”; format: functional, organism-based; settings: time 14.0 day
[32] = target: T2, Protein cereblon/Androgen receptor (Mus musculus); assay: as §1, with “TGF-beta expression” for “AR protein”, “at” for “at 0.1 to”, “DAPI staining based immunofluorescence” for “Western blot”; format: functional, organism-based; settings: time 14.0 day
Mus musculus [33] = assay: Hair regeneration efficacy in testosterone induced male C57BL/6 mouse androgenetic alopecia model assessed as increase in Ki67 expression in skin at 0.4 % TOP administered once daily for 14 days with co-administration of 0.2% testosterone for 28 days by DAPI staining based immunofluorescence analysis; format: functional, organism-based; settings: time 14.0 day

Emax [1]: 63%
Activity [2]: Time-dependent-effect
Activity [5]: Active
fold change (FC) [6]: 0.77
Ratio [7]: 333.81
Ratio [8]: 119.61
Cmax [9]: 86700 ng/g
Cmax [10]: 708 ng/mL
Ratio [11]: 1098.91
Ratio [12]: 2610.82
Ratio [13]: 344.99
Ratio [14]: 465.04
Ratio [15]: 441.98
Ratio [16]: 196.27
Ratio [17]: 510.81
Ratio [18]: 269.54
Ratio [19]: 800.46
Ratio [20]: 467.24
Ratio [21]: 285.69
Ratio [22]: 191.71
Ratio [23]: 101.26
Activity [25]: Active
Activity [31]: Active
Activity [32]: Active
Structure (SMILES): N#Cc1ccc(O[C@H]2CC[C@H](NC(=O)c3ccc(C4CCN(CC5CCCN(c6ccc(C(=O)NC7CCC(=O)NC7=O)cc6)C5)CC4)cc3)CC2)cc1Cl (stereo partly drawn)
Activity [3]: Active; Maximum Degradation Level Observed
Activity [4]: Not active; Compound Activity Dependent On Ubiquitin-Proteosome System
Activity (Mus musculus [24]): 100%
Activity (Mus musculus [26]): Active
Activity (Mus musculus [27]): Active
Activity (Mus musculus [28]): Active
Activity (Mus musculus [29]): Active; Less Effective Compared To High Dose Compound Group And Minoxidil Group
Activity (Mus musculus [30]): Active; Less Effective Compared To High Dose Compound Group And Minoxidil Group
Activity (Mus musculus [33]): Active
